Data reported in US11542313B2, “Incretin analogs and uses thereof” (Eli Lilly and Company, priority 2017, dated 2023).
pEC50, pKi: −log10 of the molar value. Read-outs that look alike come from different tables or passages of the source. *1 amine or outer side, *2 acyl side, *3 side chain or, on linkers, in order; H or OH if unused. Where a SMILES comes first, the peptide text is derived from it. Side-chain parts run from the residue outwards. [ ]: non-standard residue; d: D form. The star is where a group is joined. C20 diacid = O=C(O)CCCCCCCCCCCCCCCCCCC(=O)*; γGlu = O=C(O)[C@H](CCC(=O)[*:2])N[*:1]; αMeL = CC(C)C[C@](C)(N)C(=O)O; AEEA = NCCOCCOCC(=O)O; Aib = CC(C)(N)C(=O)O

Legend:
hGLP-1R = hGLP-1R (Homo sapiens, UniProt P43220); assay: cAMP assay in HEK293 cells expressing hGLP-1R, 0.1% casein; type: cell-based; conditions: in the presence of 0.1% casein; read-out: cAMP EC50, GLP-1R
[1] = molecular target: T1, human GIP receptor (GIPR) (Homo sapiens, UniProt P48546); assay: Radioligand competition binding (SPA), human GIPR membranes
T1 construct: expressed in transfected cells; host or cells: HEK293 (membranes)
T1 sequence (P48546 22-466): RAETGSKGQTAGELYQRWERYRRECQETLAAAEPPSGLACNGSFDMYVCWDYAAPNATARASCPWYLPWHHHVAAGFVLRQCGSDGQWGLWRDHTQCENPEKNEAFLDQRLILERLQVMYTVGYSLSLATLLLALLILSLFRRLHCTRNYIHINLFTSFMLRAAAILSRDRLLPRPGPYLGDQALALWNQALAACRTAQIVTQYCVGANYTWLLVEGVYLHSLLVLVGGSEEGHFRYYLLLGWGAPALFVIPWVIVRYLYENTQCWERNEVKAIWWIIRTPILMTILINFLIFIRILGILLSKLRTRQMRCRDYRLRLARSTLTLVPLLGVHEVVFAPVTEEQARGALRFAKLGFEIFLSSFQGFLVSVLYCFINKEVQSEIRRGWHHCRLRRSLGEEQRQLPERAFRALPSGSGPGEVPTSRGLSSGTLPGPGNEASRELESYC
Excerpt: (§1) Radioligand competition binding assays are run to determine the equilibrium dissociation constant for exemplary compounds and comparator molecules.
(§2) Competition curves are plotted as the percent specific inhibition (y-axis) versus log concentration of compound (x-axis) and analyzed using a four parameter nonlinear regression fit with variable slope (ABase or Genedata).

[2] = molecular target: T2, human glucagon receptor (GcgR) (Homo sapiens, UniProt P47871); assay: Radioligand competition binding (SPA), human GcgR membranes
T2 construct: expressed in transfected cells; host or cells: HEK293 (membranes)
Excerpt: as §1, §2

hGIPR = molecular target: T3, hGIPR (Homo sapiens, UniProt P48546); assay: cAMP assay in HEK293 cells expressing hGIPR, 0.1% casein; type: cell-based; conditions: in the presence of 0.1% casein; read-out: cAMP EC50, GIPR
T3 construct: expressed in transfected cells; host or cells: HEK293
T3 sequence (P48546 22-466): T1 sequence (P48546 22-466)

GLP-1 receptor (GLP-1R) = molecular target: T4, GLP-1 receptor (GLP-1R) (Homo sapiens, UniProt P43220); assay: Radioligand competition binding (SPA), human GLP-1R membranes
T4 construct: expressed in transfected cells; host or cells: HEK293 (membranes)
Excerpt: as §1, §2

hGcgR = molecular target: T5, hGcgR (Homo sapiens, UniProt P47871); assay: cAMP assay in HEK293 cells expressing hGcgR, 0.1% casein; type: cell-based; conditions: in the presence of 0.1% casein; read-out: cAMP EC50, GcGR
T5 construct: expressed in transfected cells; host or cells: HEK293

[3] = Pharmacokinetics in male Sprague Dawley rats; conditions: for CL/F / Tmax / half-life: male, Sprague-Dawley, rat, plasma, sc, 100 nmol/kg; for AUCINF_D_obs / Cmax/D: single subcutaneous 100 nMol/kg, male Sprague Dawley rats, n = 3
Experimental: The pharmacokinetics of the exemplary analogs are evaluated following a single subcutaneous administration of 100 nM/kg to male Sprague Dawley rats. Blood samples are collected over 120 hours, and resulting individual plasma concentrations are used to calculate pharmacokinetic parameters. Peptide plasma (K3 EDTA) concentrations are determined using a qualified LC/MS method that measured the intact mass of the analog. Each peptide and an analog as an internal standard are extracted from 100% specie specified plasma using methanol with 0.1% formic acid. A Thermo Q-Exactive, High Resolution Instrument, and a Thermo Easy Spray PepMap are combined for LC/MS detection.

[4] = HEK293 membranes, SPA, bacitracin present, mean, read-out: Ki, GIPR
[5] = HEK293 membranes, SPA, bacitracin present, mean, read-out: Ki, GcgR
[6] = HEK293 membranes, SPA, bacitracin present, mean, read-out: Ki, GLP-1R

T5 sequence (P47871 26-477): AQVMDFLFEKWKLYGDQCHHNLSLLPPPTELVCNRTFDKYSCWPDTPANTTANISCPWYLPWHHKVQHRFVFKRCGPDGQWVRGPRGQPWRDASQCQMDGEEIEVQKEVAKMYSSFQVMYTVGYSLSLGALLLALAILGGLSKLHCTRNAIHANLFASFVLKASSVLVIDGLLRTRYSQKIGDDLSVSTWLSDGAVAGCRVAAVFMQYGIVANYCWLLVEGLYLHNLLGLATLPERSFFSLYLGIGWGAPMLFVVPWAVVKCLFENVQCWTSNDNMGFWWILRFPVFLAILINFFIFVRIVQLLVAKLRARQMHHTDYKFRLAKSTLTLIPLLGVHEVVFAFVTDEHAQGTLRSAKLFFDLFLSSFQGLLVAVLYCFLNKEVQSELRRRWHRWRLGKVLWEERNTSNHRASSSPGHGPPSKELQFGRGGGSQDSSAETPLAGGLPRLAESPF
T2 sequence (P47871 26-477): as above
Sequence of hGLP-1R (P43220 24-463): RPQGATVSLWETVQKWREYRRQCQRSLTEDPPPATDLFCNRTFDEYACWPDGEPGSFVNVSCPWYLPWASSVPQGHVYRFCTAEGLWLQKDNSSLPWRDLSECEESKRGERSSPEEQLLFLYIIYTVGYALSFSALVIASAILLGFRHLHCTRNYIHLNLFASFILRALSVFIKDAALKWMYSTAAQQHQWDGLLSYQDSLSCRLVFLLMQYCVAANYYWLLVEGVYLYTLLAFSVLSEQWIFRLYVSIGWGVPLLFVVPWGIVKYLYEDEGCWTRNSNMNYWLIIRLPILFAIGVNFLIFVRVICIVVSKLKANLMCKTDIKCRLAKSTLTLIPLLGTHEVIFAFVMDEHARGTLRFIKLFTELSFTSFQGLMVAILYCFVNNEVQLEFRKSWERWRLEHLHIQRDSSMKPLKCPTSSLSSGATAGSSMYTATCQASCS
T4 sequence (P43220 24-463): as above

SMILES	pEC50 (hGLP-1R)	pKi [1, 4]	pKi [2, 5]	pEC50 (hGIPR)	pKi (GLP-1 receptor (GLP-1R); [6])	pEC50 (hGcgR)	pKi [1]	pKi [2]	pKi (GLP-1 receptor (GLP-1R))	CL/F [3]	Tmax [3]	half-life [3]	AUCINF_D_obs [3]	Cmax/D [3]
CC[C@H](C)[C@H](NC(=O)[C@H](Cc1ccccc1)NC(=O)[C@H](C)NC(=O)C(C)(C)NC(=O)[C@H](CCC(N)=O)NC(=O)[C@H](C)NC(=O)[C@H](CCCCNC(=O)COCCOCCNC(=O)CC[C@H](NC(=O)CCCCCCCCCCCCCCCCCCC(=O)O)C(=O)O)NC(=O)[C@H](CCCCN)NC(=O)[C@H](CC(=O)O)NC(=O)[C@H](CC(C)C)NC(=O)[C@](C)(CC(C)C)NC(=O)[C@@H](NC(=O)[C@H](CO)NC(=O)[C@H](Cc1ccc(O)cc1)NC(=O)[C@H](CC(=O)O)NC(=O)[C@H](CO)NC(=O)[C@@H](NC(=O)[C@H](Cc1ccccc1)NC(=O)[C@@H](NC(=O)CNC(=O)[C@H](CCC(N)=O)NC(=O)C(C)(C)NC(=O)[C@@H](N)Cc1ccc(O)cc1)[C@@H](C)O)[C@@H](C)O)[C@@H](C)CC)C(=O)N[C@@H](CCC(=O)O)C(=O)N[C@@H](Cc1ccc(O)cc1)C(=O)N[C@@H](CC(C)C)C(=O)N[C@@H](CC(C)C)C(=O)N[C@@H](CCC(=O)O)C(=O)NC(C)(C)C(=O)NCC(=O)N1CCC[C@H]1C(=O)N[C@@H](CO)C(=O)N[C@@H](CO)C(=O)NC(C)(C)C(=O)N[C@@H](C)C(=O)N1CCC[C@H]1C(=O)N1CCC[C@H]1C(=O)N1CCC[C@H]1C(=O)N[C@@H](CO)C(N)=O [Example 14] (H-Y[Aib]QGTFTSDYSI[αMeL]LDKK([AEEA-γGlu-C20 diacid])AQ[Aib]AFIEYLLE[Aib]GPSS[Aib]APPPS-NH2; N-terminus assumed)	9.84	10.46	8.58	10.45	8.20	10.06	–	–	–	–	–	–	–	–
CC[C@H](C)[C@H](NC(=O)[C@H](Cc1ccccc1)NC(=O)[C@H](C)NC(=O)[C@H](Cc1c[nH]cn1)NC(=O)[C@H](CCC(N)=O)NC(=O)[C@H](C)NC(=O)[C@H](CCCCNC(=O)COCCOCCNC(=O)CC[C@H](NC(=O)CCCCCCCCCCCCCCCCCCC(=O)O)C(=O)O)NC(=O)[C@H](CCCCN)NC(=O)[C@H](CC(=O)O)NC(=O)[C@H](CC(C)C)NC(=O)[C@](C)(CC(C)C)NC(=O)[C@@H](NC(=O)[C@H](CO)NC(=O)[C@H](Cc1ccc(O)cc1)NC(=O)[C@H](CC(=O)O)NC(=O)[C@H](CO)NC(=O)[C@@H](NC(=O)[C@H](Cc1ccccc1)NC(=O)[C@@H](NC(=O)CNC(=O)[C@H](CCC(N)=O)NC(=O)C(C)(C)NC(=O)[C@@H](N)Cc1ccc(O)cc1)[C@@H](C)O)[C@@H](C)O)[C@@H](C)CC)C(=O)N[C@@H](CCC(=O)O)C(=O)N[C@@H](Cc1ccc(O)cc1)C(=O)N[C@@H](CC(C)C)C(=O)N[C@@H](CC(C)C)C(=O)N[C@@H](C)C(=O)NC(C)(C)C(=O)NCC(=O)N1CCC[C@H]1C(=O)N[C@@H](CO)C(=O)N[C@@H](CO)C(=O)NCC(=O)N[C@@H](C)C(=O)N1CCC[C@H]1C(=O)N1CCC[C@H]1C(=O)N1CCC[C@H]1C(=O)N[C@@H](CO)C(N)=O [Example 2] (H-Y[Aib]QGTFTSDYSI[αMeL]LDKK([AEEA-γGlu-C20 diacid])AQHAFIEYLLA[Aib]GPSSGAPPPS-NH2)	9.68	10.18	8.43	10.32	8.35	10.26	–	–	–	–	–	–	–	–
CC[C@H](C)[C@H](NC(=O)[C@H](Cc1ccccc1)NC(=O)[C@H](C)NC(=O)C(C)(C)NC(=O)[C@H](CCC(N)=O)NC(=O)[C@H](C)NC(=O)[C@H](CCCCNC(=O)COCCOCCNC(=O)CC[C@H](NC(=O)CCCCCCCCCCCCCCCCCCC(=O)O)C(=O)O)NC(=O)[C@H](CCCCN)NC(=O)[C@H](CC(=O)O)NC(=O)[C@H](CC(C)C)NC(=O)[C@H](CC(C)C)NC(=O)[C@@H](NC(=O)[C@H](CO)NC(=O)[C@H](Cc1ccc(O)cc1)NC(=O)[C@H](CC(=O)O)NC(=O)[C@H](CO)NC(=O)[C@@H](NC(=O)[C@H](Cc1ccccc1)NC(=O)[C@@H](NC(=O)CNC(=O)[C@H](CCC(N)=O)NC(=O)C(C)(C)NC(=O)[C@@H](N)Cc1ccc(O)cc1)[C@@H](C)O)[C@@H](C)O)[C@@H](C)CC)C(=O)N[C@@H](CCC(=O)O)C(=O)N[C@@H](Cc1ccc(O)cc1)C(=O)N[C@@H](CC(C)C)C(=O)N[C@@H](CC(C)C)C(=O)N[C@@H](CCC(=O)O)C(=O)NC(C)(C)C(=O)NCC(=O)N1CCC[C@H]1C(=O)N[C@@H](CO)C(=O)N[C@@H](CO)C(=O)NCC(=O)N[C@@H](C)C(=O)N1CCC[C@H]1C(=O)N1CCC[C@H]1C(=O)N1CCC[C@H]1C(=O)N[C@@H](CO)C(N)=O [Example 20] (H-Y[Aib]QGTFTSDYSILLDKK([AEEA-γGlu-C20 diacid])AQ[Aib]AFIEYLLE[Aib]GPSSGAPPPS-NH2; N-terminus assumed)	9.83	9.96	8.42	10.24	8.03	10.19	–	–	–	–	–	–	–	–
CC[C@H](C)[C@H](NC(=O)[C@H](Cc1ccccc1)NC(=O)[C@H](C)NC(=O)C(C)(C)NC(=O)[C@H](CCC(N)=O)NC(=O)[C@H](C)NC(=O)[C@H](CCCCNC(=O)COCCOCCNC(=O)COCCOCCNC(=O)CC[C@H](NC(=O)CCCCCCCCCCCCCCCCCCC(=O)O)C(=O)O)NC(=O)[C@H](CCCCN)NC(=O)[C@H](CC(=O)O)NC(=O)[C@H](CC(C)C)NC(=O)[C@H](CC(C)C)NC(=O)[C@@H](NC(=O)[C@H](CO)NC(=O)[C@H](Cc1ccc(O)cc1)NC(=O)[C@H](CC(=O)O)NC(=O)[C@H](CO)NC(=O)[C@@H](NC(=O)[C@H](Cc1ccccc1)NC(=O)[C@@H](NC(=O)CNC(=O)[C@H](CCC(N)=O)NC(=O)C(C)(C)NC(=O)[C@@H](N)Cc1ccc(O)cc1)[C@@H](C)O)[C@@H](C)O)[C@@H](C)CC)C(=O)N[C@@H](CCC(=O)O)C(=O)N[C@@H](Cc1ccc(O)cc1)C(=O)N[C@@H](CC(C)C)C(=O)N[C@@H](CC(C)C)C(=O)N[C@@H](CCC(=O)O)C(=O)NCC(=O)NCC(=O)N1CCC[C@H]1C(=O)N[C@@H](CO)C(=O)N[C@@H](CO)C(=O)NCC(=O)N[C@@H](C)C(=O)N1CCC[C@H]1C(=O)N1CCC[C@H]1C(=O)N1CCC[C@H]1C(=O)N[C@@H](CO)C(N)=O [Example 16]	–	–	–	–	–	–	9.97	7.94	7.79	3.6 mL/h/kg	20 h	29.1 h	274.9 hr*kg*nmol/L/nmol	3.8 kg*nmol/L/nmol
CC[C@H](C)[C@H](NC(=O)[C@H](Cc1ccccc1)NC(=O)[C@H](C)NC(=O)[C@](C)(CCCCN)NC(=O)[C@H](CCC(N)=O)NC(=O)[C@H](C)NC(=O)[C@H](CCCCNC(=O)COCCOCCNC(=O)COCCOCCNC(=O)CC[C@H](NC(=O)CCCCCCCCCCCCCCCCCCC(=O)O)C(=O)O)NC(=O)[C@H](CCCCN)NC(=O)[C@H](CC(=O)O)NC(=O)[C@H](CC(C)C)NC(=O)[C@](C)(CC(C)C)NC(=O)[C@@H](NC(=O)[C@H](CO)NC(=O)[C@H](Cc1ccc(O)cc1)NC(=O)[C@H](CC(=O)O)NC(=O)[C@H](CO)NC(=O)[C@@H](NC(=O)[C@H](Cc1ccccc1)NC(=O)[C@@H](NC(=O)CNC(=O)[C@H](CCC(N)=O)NC(=O)C(C)(C)NC(=O)[C@@H](N)Cc1ccc(O)cc1)[C@@H](C)O)[C@@H](C)O)[C@@H](C)CC)C(=O)N[C@@H](CCC(=O)O)C(=O)N[C@@H](Cc1ccc(O)cc1)C(=O)N[C@@H](CC(C)C)C(=O)N[C@@H](CC(C)C)C(=O)N[C@@H](CCC(=O)O)C(=O)NCC(=O)NCC(=O)N1CCC[C@H]1C(=O)N[C@@H](CO)C(=O)N[C@@H](CO)C(=O)NCC(=O)N[C@@H](C)C(=O)N1CCC[C@H]1C(=O)N1CCC[C@H]1C(=O)N1CCC[C@H]1C(=O)N[C@@H](CO)C(N)=O [Example 3]	–	–	–	–	–	–	10.35	7.92	8.22	6.9 mL/h/kg	16 h	19.2 h	146 hr*kg*nmol/L/nmol	2.5 kg*nmol/L/nmol
